From patent US20130203798A1, “DIAGNOSIS AND TREATMENT OF FUNCTIONAL DYSPEPSIA AND IRRITABLE BOWEL SYNDROME” (EV MED, priority 2012, published 2013)

Columns and labels:
coxsackievirus B3 (CVB3) = assay: Inhibition of enterovirus replication in chronically infected BGMK-DAF cells, viral RNA by qRT-PCR; assay type: cell-based; conditions: for Viral RNA Log10: no treatment 6.84
Experimental: (§1) Oxymatrine is an alkaloid with antiviral and immune boosting effect. […] 200,000 BGMK-DAF cells were infected with coxsackievirus B3,4 (CVB3,4) or echovirus 6,7 (Echo V6,7), previously titrated to cause complete lysis of cells in 48-72 hours, then treated with 0.18 μg of peg-interferon α-2a in 4 hours and 90 hours. Oxymatrine was added at 162 hours post-infection. Viral RNA, expressed in log10 was quantified by qRT-PCR with a cDNA standard, and reduction of log viral RNA calculated based on no-treatment wells. Duplicate wells were combined for viral RNA determination.

coxsackievirus B4 (CVB4) = assay: as above; assay type: cell-based; conditions: for Viral RNA Log10: no treatment 4.20
Experimental: as §1

echovirus 6 (EchoV 6) = assay: as above; assay type: cell-based; conditions: EchoV 6, BGMK-DAF cells; for Viral RNA Log10: no treatment 5.00
Experimental: as §1

echovirus 7 (EchoV 7) = assay: as above; assay type: cell-based; conditions: EchoV 7, BGMK-DAF cells; for Viral RNA Log10: no treatment 5.61
Experimental: as §1

enteroviruses = assay: In vitro inhibition of four enteroviruses in interferon pre-treated, chronically infected cells (summary); assay type: cell-based, enterovirus; conditions: cells pre-treated with interferon to produce chronic infection; four enteroviruses tested
Experimental: as §1

SMILES: O=C1CCC[C@@H]2[C@H]3CCC[N@+]4([O-])CCC[C@@H](CN12)[C@@H]34 [Oxymatrine, oxymatrine]
- Dec Log10 (reduction of log viral RNA vs no-treatment wells) (coxsackievirus B3 (CVB3); 1 μM oxymatrine): −6.24 Log10
- Viral RNA Log10 (coxsackievirus B3 (CVB3); 1 μM oxymatrine): 0.60 Log10
- Dec Log10 (reduction of log viral RNA vs no-treatment wells) (coxsackievirus B3 (CVB3); 10 μM oxymatrine): −6.54 Log10
- Viral RNA Log10 (coxsackievirus B3 (CVB3); 10 μM oxymatrine): 0.30 Log10
- Dec Log10 (reduction of log viral RNA vs no-treatment wells) (coxsackievirus B3 (CVB3); 100 μM oxymatrine): −5.54 Log10
- Viral RNA Log10 (coxsackievirus B3 (CVB3); 100 μM oxymatrine added 162 h post-infection): 1.30 Log10
- Dec Log10 (reduction of log viral RNA vs no-treatment wells) (coxsackievirus B4 (CVB4); 1 μM oxymatrine): −0.55 Log10
- Viral RNA Log10 (coxsackievirus B4 (CVB4); 1 μM oxymatrine): 3.66 Log10
- Dec Log10 (reduction of log viral RNA vs no-treatment wells) (coxsackievirus B4 (CVB4); 10 μM oxymatrine): −4.20 Log10
- Viral RNA Log10 (coxsackievirus B4 (CVB4); 10 μM oxymatrine): 0.00 Log10
- Dec Log10 (reduction of log viral RNA vs no-treatment wells) (coxsackievirus B4 (CVB4); 100 μM oxymatrine): −3.90 Log10
- Viral RNA Log10 (coxsackievirus B4 (CVB4); 100 μM oxymatrine): 0.30 Log10
- Dec Log10 (reduction of log viral RNA vs no-treatment wells) (echovirus 6 (EchoV 6); 1 μM oxymatrine): 0.00 Log10
- Viral RNA Log10 (echovirus 6 (EchoV 6); 1 μM oxymatrine): 5.00 Log10
- Dec Log10 (reduction of log viral RNA vs no-treatment wells) (echovirus 6 (EchoV 6); 10 μM oxymatrine): 0.37 Log10
- Viral RNA Log10 (echovirus 6 (EchoV 6); 10 μM oxymatrine): 5.37 Log10
- Dec Log10 (reduction of log viral RNA vs no-treatment wells) (echovirus 6 (EchoV 6); 100 μM oxymatrine): 0.00 Log10
- Viral RNA Log10 (echovirus 6 (EchoV 6); 100 μM oxymatrine): 5.00 Log10
- Dec Log10 (reduction of log viral RNA vs no-treatment wells) (echovirus 7 (EchoV 7); 1 μM oxymatrine): −0.28 Log10
- Viral RNA Log10 (echovirus 7 (EchoV 7); 1 μM oxymatrine): 5.33 Log10
- Dec Log10 (reduction of log viral RNA vs no-treatment wells) (echovirus 7 (EchoV 7); 10 μM oxymatrine): −0.17 Log10
- Viral RNA Log10 (echovirus 7 (EchoV 7); 10 μM oxymatrine): 5.45 Log10
- Dec Log10 (reduction of log viral RNA vs no-treatment wells) (echovirus 7 (EchoV 7); 100 μM oxymatrine): 0.22 Log10
- Viral RNA Log10 (echovirus 7 (EchoV 7); 100 μM oxymatrine): 5.83 Log10
- Inhibition of enteroviruses in vitro (enteroviruses): significant inhibition of two out of four enteroviruses
